For nine compounds, IC50 results are on record in patent US10023591B2, “Heterocyclic derivatives and use thereof” (C&C RESEARCH LABORATORIES, priority 2014, dated 2018).

The subject of experiment [1] is STAT3. The experiment in a line: STAT3 reporter gene assay (luciferase), LNCaP stable cell line pSTAT3-TA-luc, IL-6 stimulation. The class given is cell-based, human. Particulars: Homo sapiens. In outline: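 LNCaP cells stably carrying pSTAT3-TA-luc were plated 24 h in 3% DCC-FBS medium, then given compound followed by IL-6 (10 ng/mL final) for 24 h at 37 °C. Luciferase was read from lysates, with CellTiter-Glo viability on a duplicate plate. Stimulated 0.1% DMSO wells served as uninhibited control.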
For orientation: Reporter assays use an easily measured gene product as a stand-in for the process of interest.

For experiment [2], the system named is STAT1. The experiment in a line: STAT1 reporter gene assay (luciferase), U2OS stable cell line pGL4-STAT1-TA-luc, IFN-γ stimulation. In kind it is cell-based, human. Particulars: Homo sapiens, IFN-γ 50 ng/mL, 8 hours, read-out: IC50 (μM) pSTAT1. The essentials:
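U2OS cells stably carrying a STAT1-driven luciferase reporter were treated with serially diluted compounds plus IFN-γ (50 ng/mL final) for 8 h at 37 °C in 10% FBS medium. Luciferase read after lysis; parallel plate assessed for cytotoxicity by CellTiter-Glo.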

Experiment [3] concerns NCI-N87 stomach cancer cell line. Briefly: Cell growth inhibition assay, NCI-N87 (CellTiter-Glo). Particulars: Homo sapiens; NCI-N87, 5,000 cells/well, 96 hours. The class given is cell-based. On the procedure: The inhibitory effects of the compounds of the present invention against the growth of cancer cells were evaluated as shown below. The cancer cell lines including prostate cancer cell lines (LNCaP, DU-145), stomach cancer cell line (NCI-N87), and breast cancer cell lines (MDA-MB-468) were cultured under the protocol provided by each supplier. A medium supplemented with 10 ng/mL of IL-6 was used for LNCaP, a prostate cancer cell line, when treated with a drug. Each type of cells to be used in experiments was sub-cultured in a 96-well plate by counting the exact number of cells using Tali™ Image-based Cytometer (Life Technologies). In a 96-well plate, DU-145 was employed with 3,000 cells/well; NCI-N87 was employed with 5,000 cells/well; and LNCaP and MDA-MB-468 were employed with 10,000 cells/well. The cells were treated with the compounds listed in Examples which were diluted in various concentrations. Upon completion of the compounds treatment, LNCaP, DU-145, NCI-N87 cells were cultured at 37° C. under 5% CO2 for 96 hours, and MDA-MB-468 cells were cultured at 37° C. in air for 96 hours. Subsequently, the cells were observed under microscope and drug precipitation and particular findings were investigated and recorded. And then, the 96-well plate was placed at room temperature for 30 minutes, added with 20 pt/well of CellTiter-Glo solution (Cat No. G7573, Promega) and shaken for 10 minutes, followed by being subjected to the measurement using PHERAstar™ microplate reader (BMG LABTECH) according to the supplier's general luminometer protocol. Wells where only culture liquid added without cell plating were used as a negative control, whereas wells where culture liquid containing 0.1% DMSO instead of the compounds listed in Examples were used as a positive control.
A general note: ATP-based viability assays read luminescence as a measure of living cells.

`O=C(Nc1cc(Cl)nc(Oc2ccc(Cl)cc2)c1)c1cc2cc(C3CCCS3(=O)=O)ccc2s1` (stereo not drawn) [Example 73, N-(2-chloro-6-(4-chlorophenoxy)pyridin-4-yl)-5-(1,1-dioxidotetrahydrothiophen-2-yl)benzo[b]thiophene-2-carboxamide]: the IC50 was 0.13 µM in experiment [1], over 50 µM in experiment [2] and 0.45 µM in experiment [3].
The corresponding values for `Cn1nccc1Oc1cc(NC(=O)c2cc3cc(C(C)(C)S(C)(=O)=O)ccc3s2)cc(Cl)n1` [Example 110, N-(2-chloro-6-((1-methyl-1H-pyrazol-5-yl)oxy)pyridin-4-yl)-5-(2-(methylsulfonyl)propan-2-yl)benzo[b]thiophene-2-carboxamide] are 0.53 µM, 44.8 µM and 1.2 µM.
The matching figures for `Cc1noc(C)c1Oc1cc(NC(=O)c2cc3cc(C(C)(C)S(C)(=O)=O)ccc3s2)cc(Cl)n1` [Example 113, N-(2-chloro-6-((3,5-dimethylisoxazol-4-yl)oxy)pyridin-4-yl)-5-(2-(methylsulfonyl)propan-2-yl)benzo[b]thiophene-2-carboxamide]: 0.18 µM, over 50 µM and 0.27 µM.
The matching figures for `CCN1CCC2(CCN(c3cc(NC(=O)c4cc5cc(C(C)(C)S(C)(=O)=O)ccc5s4)cc(Cl)n3)C2)C1` (stereo not drawn) [Example 107, N-(2-chloro-6-(7-ethyl-2,7-diazaspiro[4.4]nonan-2-yl)pyridin-4-yl)-5-(2-(methylsulfonyl)propan-2-yl)benzo[b]thiophene-2-carboxamide]: over 10 µM, 33.5 µM and 5.5 µM.
For `C=CCOc1cc(OC(F)(F)F)cc(C(C)(C)c2cc(Cl)cc(NC(=O)c3cc4cc(C(C)(C)S(C)(=O)=O)ccc4s3)c2)c1` [Example 14, N-(3-(2-(3-(allyloxy)-5-(trifluoromethoxy)phenyl)propan-2-yl)-5-chlorophenyl)-5-(2-(methylsulfonyl)propan-2-yl)benzo[b]thiophene-2-carboxamide], the half-maximal inhibitory concentration (IC50) in experiment [1] was 0.0083 µM; in experiment [2], over 50 µM; in experiment [3] it was 0.01 µM.
For the compound `CC(C)(c1cc(Cl)cc(NC(=O)c2cc3cc(C(C)(C)S(C)(=O)=O)ccc3s2)c1)c1cc(OC2CC2)cc(OC(F)(F)F)c1` [Example 15, N-(3-chloro-5-(2-(3-cyclopropoxy-5-(trifluoromethoxy)phenyl)propan-2-yl)phenyl)-5-(2-(methylsulfonyl)propan-2-yl)benzo[b]thiophene-2-carboxamide], the results for the IC50 in experiment [1], in experiment [2] and in experiment [3] were 0.0057 µM, over 50 µM and 0.0093 µM, respectively.
The matching figures for `CC(C)COc1cc(OC(F)(F)F)cc(C(C)(C)c2cc(Cl)cc(NC(=O)c3cc4cc(C(C)(C)S(C)(=O)=O)ccc4s3)c2)c1` [Example 11, N-(3-chloro-5-(2-(3-isobutoxy-5-(trifluoromethoxy)phenyl)propan-2-yl)phenyl)-5-(2-(methylsulfonyl)propan-2-yl)benzo[b]thiophene-2-carboxamide]: 0.0021 µM, over 50 µM and 0.011 µM.
The matching figures for `CC(C)(c1ccc2sc(C(=O)Nc3cc(Br)nc(Oc4ccc(Cl)cc4)c3)cc2c1)S(C)(=O)=O` [Example 69, N-(2-bromo-6-(4-chlorophenoxy)pyridin-4-yl)-5-(2-(methylsulfonyl)propan-2-yl)benzo[b]thiophene-2-carboxamide]: 0.01 µM, over 50 µM and 0.015 µM.
The corresponding values for `CC(C)Oc1cc(OC(F)(F)F)cc(C(C)(C)c2cc(Br)cc(NC(=O)c3cc4cc(C(C)(C)S(C)(=O)=O)ccc4s3)c2)c1` [Example 9, N-(3-bromo-5-(2-(3-isopropoxy-5-(trifluoromethoxy)phenyl)propan-2-yl)phenyl)-5-(2-(methylsulfonyl)propan-2-yl)benzo[b]thiophene-2-carboxamide] are 0.00065 µM, over 50 µM and 0.02 µM.

For orientation: IC50 means the midpoint of a concentration-inhibition curve.
